Experimental data: patent publication US20230103791A1 (GLAXOSMITHKLINE INTELLECTUAL PROPERTY DEVELOPMENT LIMITED, priority 2019, published 2023)

target: T1, human Nav1.8 (Homo sapiens, UniProt Q9Y5Y9); experiment: Nav1.8 sodium channels assay, QPatch 48 HTX electrophysiology in HEK293-Nav1.8 cells; assay type: cell-based; details: at least one set of experimental runs; read-out: average pIC50 value against Nav1.8 (converted)
T1 construct: expressed in transfected cells; host or cells: HEK293 (HEK293-Nav1.8)
T1 sequence (Q9Y5Y9 whole entry): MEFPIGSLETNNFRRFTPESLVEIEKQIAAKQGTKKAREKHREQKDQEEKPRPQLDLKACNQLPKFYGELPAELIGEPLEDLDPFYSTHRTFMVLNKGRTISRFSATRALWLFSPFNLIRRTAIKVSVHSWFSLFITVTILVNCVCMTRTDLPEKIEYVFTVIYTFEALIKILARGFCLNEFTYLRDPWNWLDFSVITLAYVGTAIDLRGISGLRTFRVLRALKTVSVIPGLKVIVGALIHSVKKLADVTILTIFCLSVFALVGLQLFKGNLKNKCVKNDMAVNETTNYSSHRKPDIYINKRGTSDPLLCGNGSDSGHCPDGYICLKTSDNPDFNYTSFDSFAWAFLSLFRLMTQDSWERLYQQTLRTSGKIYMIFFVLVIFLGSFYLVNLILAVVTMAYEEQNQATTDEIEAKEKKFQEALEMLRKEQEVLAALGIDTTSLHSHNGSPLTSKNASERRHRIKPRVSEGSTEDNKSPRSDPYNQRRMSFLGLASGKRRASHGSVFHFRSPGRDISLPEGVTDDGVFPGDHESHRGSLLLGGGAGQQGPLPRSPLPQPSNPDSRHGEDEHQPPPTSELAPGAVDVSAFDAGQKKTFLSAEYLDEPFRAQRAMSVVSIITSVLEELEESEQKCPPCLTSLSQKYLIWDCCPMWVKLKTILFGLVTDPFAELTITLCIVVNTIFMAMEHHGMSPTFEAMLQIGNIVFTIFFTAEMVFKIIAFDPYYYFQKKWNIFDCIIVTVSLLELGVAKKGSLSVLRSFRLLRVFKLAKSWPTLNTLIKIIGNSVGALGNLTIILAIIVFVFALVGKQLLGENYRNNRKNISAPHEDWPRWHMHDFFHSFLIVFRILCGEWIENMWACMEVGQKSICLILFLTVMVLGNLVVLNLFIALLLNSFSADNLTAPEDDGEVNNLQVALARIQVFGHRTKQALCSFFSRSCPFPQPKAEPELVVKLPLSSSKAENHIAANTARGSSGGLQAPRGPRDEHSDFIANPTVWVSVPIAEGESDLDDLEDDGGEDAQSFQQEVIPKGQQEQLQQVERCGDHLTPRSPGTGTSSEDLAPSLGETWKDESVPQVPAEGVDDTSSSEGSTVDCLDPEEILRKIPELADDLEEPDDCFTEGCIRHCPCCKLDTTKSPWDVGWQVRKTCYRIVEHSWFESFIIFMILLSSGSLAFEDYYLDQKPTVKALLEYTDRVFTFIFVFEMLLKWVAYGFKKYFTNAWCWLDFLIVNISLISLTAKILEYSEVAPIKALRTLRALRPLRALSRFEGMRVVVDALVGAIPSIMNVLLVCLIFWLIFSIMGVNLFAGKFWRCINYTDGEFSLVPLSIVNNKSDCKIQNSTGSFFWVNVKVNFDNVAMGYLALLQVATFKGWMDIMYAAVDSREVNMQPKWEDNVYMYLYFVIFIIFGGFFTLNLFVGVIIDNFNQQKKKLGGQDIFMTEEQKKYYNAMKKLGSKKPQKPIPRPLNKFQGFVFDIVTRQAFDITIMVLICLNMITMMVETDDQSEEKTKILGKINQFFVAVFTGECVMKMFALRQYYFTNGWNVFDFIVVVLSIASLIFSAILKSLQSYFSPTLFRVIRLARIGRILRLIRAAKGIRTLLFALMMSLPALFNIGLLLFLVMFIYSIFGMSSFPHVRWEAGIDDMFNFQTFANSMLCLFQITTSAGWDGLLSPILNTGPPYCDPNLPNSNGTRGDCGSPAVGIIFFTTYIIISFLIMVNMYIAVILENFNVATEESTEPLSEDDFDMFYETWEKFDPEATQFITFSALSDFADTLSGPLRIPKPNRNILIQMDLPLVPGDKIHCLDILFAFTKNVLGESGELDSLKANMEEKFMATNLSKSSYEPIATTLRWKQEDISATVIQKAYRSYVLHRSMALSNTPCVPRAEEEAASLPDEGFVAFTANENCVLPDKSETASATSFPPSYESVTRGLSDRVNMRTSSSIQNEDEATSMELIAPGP
T1 sequence (Q07699 19-218 partner): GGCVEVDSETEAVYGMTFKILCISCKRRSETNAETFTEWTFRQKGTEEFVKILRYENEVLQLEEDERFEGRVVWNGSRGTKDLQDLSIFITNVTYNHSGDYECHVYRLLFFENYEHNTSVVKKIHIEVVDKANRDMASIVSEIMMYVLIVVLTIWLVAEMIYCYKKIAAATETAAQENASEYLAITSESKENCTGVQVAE
Protocol: Human embryonic kidney […] cells (HEK293) expressing human Nav1.8, human Navβ1 and human TREK1 (HEK293-Nav1.8) were grown at 37° C., 5% CO2 in 150 cm^2 flasks. HEK293-Nav1.8 were passaged every 2-3 days when confluency reached 80-90% in to T175 cell culture flasks.
Pharmacological assessment of the invention was performed using HEK293-Nav1.8 in combination with an assay developed on the QPatch 48 HTX electrophysiological system. HEK293-Nav1.8 were prepared on the day of use by removing culture media, washing in DPBS, adding Accutase (2 ml to cover the surface, aspirate 1 ml then 1.5 min at 37° C.) followed by addition of CHO-SFM II to stop the enzyme digestion and in order to obtain a suspension of 3×10^6 cell/mL.
The invention was prepared in an extracellular solution of the following composition (in mM) NaCl 145, KCl 4, CaCl2 2, MgCl 2, HEPES 1, Glucose 10, pH 7.4 with NaOH Osmolality 300 mOsM/L. The intracellular solution was used of the following composition (in mM) CsF 115, CsCl 20, NaCl 5, EGTA 10, HEPES 10, Sucrose 20, pH 7.2 with CsOH Osmolality 310 mOsm/L.
Utilizing the voltage-clamp mode in the QPatch 48 HTX system a half inactivation state voltage protocol (V1/2) was used to determine pharmacological activity of the invention at Nav1.8 ion channels. A V1/2 protocol was utilized with the following voltage steps: a holding voltage of −100 mV was established followed by a 20 ms voltage step to 0 mV (P1), followed by an inactivating voltage step at −46 mV for 8 seconds, followed by a step to −100 mV for 20 ms, before a 20 ms step to 0 mV (P2) before returning to the holding voltage of −100 mV. This voltage protocol was repeated at a frequency of 0.07 Hz., current magnitude was quantified at the P2 step throughout the recording. Inhibition of the measured current amplitude with the invention was analyzed by fitting a 6-8 point dose-response curve allowing determination of the fifty percent inhibition concentration (IC50). Within the QPatch HTX software, P2 current was normalized according to measurements made at baseline after compound and after positive reference compound and fit to the following equation: […]
To assess current run-down over the course of the experiment vehicle-only wells were utilized and the normalized current with vehicle-only (n.IVEH) was determined. To correct the compound response for run-down, the currents were correct according the following formula: […]
Compounds of the invention are tested for activity against Nav1. 8 sodium channels in the above assay.

| Compound | IC50 |
| --- | --- |
| Cc1cc(F)ccc1N1CN(c2ccc(=O)n(C)c2)C(=O)c2ccc(C(F)(F)F)cc21 [Example 1] | 794 to 7940 nM |
| Cc1cc(F)ccc1N1CN(c2cccnc2)C(=O)c2ccc(C(F)(F)F)cc21 [Example 2] | 794 to 7940 nM |
| COc1ncc(N2CN(c3ccc(F)cc3C)c3cc(C(F)(F)F)ccc3C2=O)cn1 [Example 3, 1-(4-fluoro-2-methylphenyl)-3-(2-methoxypyrimidin-5-yl)-7-(trifluoromethyl)-2,3-dihydroquinazolin-4(1H)-one] | 794 to 7940 nM |
| Cc1cc(F)ccc1N1CN(c2ccnn2C)C(=O)c2cc(C(F)(F)F)ccc21 [Example 4, 1-(4-fluoro-2-methylphenyl)-3-(1-methyl-1H-pyrazol-5-yl)-6-(trifluoromethyl)-2,3-dihydroquinazolin-4(1H)-one] | 126 to 631 nM |
| CC(=O)Nc1cccc(N2CN(c3ccc(F)cc3C)c3cc(C(F)(F)F)ccc3C2=O)c1 [Example 5, N-(3-(1-(4-fluoro-2-methylphenyl)-4-oxo-7-(trifluoromethyl)-1,4-dihydroquinazolin-3(2H)-yl)phenyl)aceta-mide] | 794 to 7940 nM |
| CC(=O)Nc1ccc(N2CN(c3ccc(F)cc3C)c3cc(C(F)(F)F)ccc3C2=O)cc1 [Example 6, N-(4-(1-(4-fluoro-2-methylphenyl)-4-oxo-7-(trifluoromethyl)-1,4-dihydroquinazolin-3(2H)-yl)phenyl)aceta-mide] | 794 to 7940 nM |
| Cc1cc(F)ccc1N1CN(c2ccc(C(N)=O)nc2)C(=O)c2c1ccc(Cl)c2F [Example 7, 5-(6-chloro-5-fluoro-1-(4-fluoro-2-methylphenyl)-4-oxo-1,4-dihydroquinazolin-3(2H)-yl)picolinamide] | 794 to 7940 nM |
| Cc1cc(F)ccc1N1CN(c2ccnc(C(N)=O)c2)C(=O)c2c1ccc(Cl)c2F [Example 8, 4-(6-chloro-5-fluoro-1-(4-fluoro-2-methylphenyl)-4-oxo-1,4-dihydroquinazolin-3(2H)-yl)picolinamide] | 794 to 7940 nM |
| COc1ccc(N2CN(c3ccc(F)cc3Br)c3ccc(C(F)(F)F)cc3C2=O)c(C)n1 [Example 9, 1-(2-bromo-4-fluorophenyl)-3-(6-methoxy-2-methylpyridin-3-yl)-6-(trifluoromethyl)-2,3-dihydroquinazolin-4(1H)-one] | 794 to 7940 nM |
| COc1ccc(N2CN(c3ccc(F)cc3C)c3cc(C(F)(F)F)ccc3C2=O)cn1 [Example 10, 1-(4-fluoro-2-methylphenyl)-3-(6-methoxypyridin-3-yl)-7-(trifluoromethyl)-2,3-dihydroquinazolin-4(1H)-one] | 794 to 7940 nM |
| Cc1cnccc1N1CN(c2ccc(OC(F)(F)F)cc2C)c2cc(F)c(Cl)cc2C1=O [Example 11, 6-chloro-7-fluoro-1-(2-methyl-4-(trifluoromethoxy)phenyl)-3-(3-methylpyridin-4-yl)-2,3-dihydroquinazolin-4(1H)-one] | 126 to 631 nM |
| CCc1cc(F)ccc1N1CN(c2ccncc2C)C(=O)c2cc(Cl)c(F)cc21 [Example 12, 6-chloro-1-(2-ethyl-4-fluorophenyl)-7-fluoro-3-(3-methylpyridin-4-yl)-2,3-dihydroquinazolin-4(1H)-one] | 126 to 631 nM |

Second part, the molecule after the results:

| IC50 | Compound |
| --- | --- |
| 794 to 7940 nM | Cc1[nH]c(=O)ccc1N1CN([C@H]2CC[C@H](F)C2)c2cc(C(F)(F)F)ccc2C1=O (racemic) [Example 208, 1-((1S,3S)-3-fluorocyclopentyl)-3-(2-methyl-6-oxo-1,6-dihydropyridin-3-yl)-7-(trifluoromethyl)-2,3-dihydroquinazolin-4(1H)-one and 1-((1R,3R)-3-fluorocyclopentyl)-3-(2-methyl-6-oxo-1,6-dihydropyridin-3-yl)-7-(trifluoromethyl)-2.3-dihydroquinazolin-4(1H)-one] |
| ≤ 100 nM | Cc1[nH]c(=O)ccc1N1CN([C@@H]2CCCC[C@H]2C)c2cc(C(F)(F)F)ccc2C1=O (racemic) [Example 278, Mixture of 3-(2-Methyl-6-oxo-1,6-dihydropyridin-3-yl)-1-((1R,2R)-2-methylcyclohexyl)-7-(trifluoromethyl)-2,3-dihydroquinazolin-4(1H)-one and 3-(2-Methyl-6-oxo-1,6-dihydropyridin-3-yl)-1-((1S,2S)-2-methylcyclohexyl)-7-(trifluoromethyl)-2,3-dihydroquinazolin-4(1H)-one] |
| 794 to 7940 nM | Cc1cc(F)ccc1N1c2cc(C(F)(F)F)ccc2C(=O)N(c2ccc(=O)[nH]c2)C1C (single isomer, unassigned) [Example 285] |
| 794 to 7940 nM | Cc1cc(=O)[nH]c(C)c1N1CN(c2ccc(F)cc2C(C)C)c2cc(C(F)(F)F)ccc2C1=O (single isomer, unassigned) [Example 289, 3-(2,4-Dimethyl-6-oxo-1,6-dihydropyridin-3-yl)-1-(4-fluoro-2-isopropylphenyl)-7-(trifluoromethyl)-2,3-dihydroquinazolin-4(1H)-one] |
| 126 to 631 nM | Cc1cc(=O)[nH]c(C)c1N1CN(c2ccc(F)cc2C(C)C)c2cc(C(F)(F)F)ccc2C1=O (single isomer, unassigned) [Example 290, 3-(2,4-dimethyl-6-oxo-1,6-dihydropyridin-3-yl)-1-(4-fluoro-2-isopropylphenyl)-7-(trifluoromethyl)-2,3-dihydroquinazolin-4(1H)-one] |
| 794 to 7940 nM | Cc1cc(=O)[nH]c(C)c1N1CN(c2ccc(F)cc2C(C)C)c2ccc(Cl)cc2C1=O (single isomer, unassigned) [Example 291, 6-Chloro-3-(2,4-dimethyl-6-oxo-1,6-dihydropyridin-3-yl)-1-(4-fluoro-2-isopropylphenyl)-2,3-dihydroquinazolin-4(1H)-one] |
| 126 to 631 nM | Cc1cc(=O)[nH]c(C)c1N1CN(c2ccc(F)cc2C(C)C)c2ccc(Cl)cc2C1=O (single isomer, unassigned) [Example 292, 6-Chloro-3-(2,4-dimethyl-6-oxo-1,6-dihydropyridin-3-yl)-1-(4-fluoro-2-isopropylphenyl)-2,3-dihydroquinazolin-4(1H)-one] |
| 126 to 631 nM | Cc1[nH]c(=O)ccc1N1CN(c2ccc(F)cc2C(C)(C)C)c2ccc(Cl)cc2C1=O (single isomer, unassigned) [Example 293, 1-(2-(tert-Butyl)-4-fluorophenyl)-6-chloro-3-(2-methyl-6-oxo-1,6-dihydropyridin-3-yl)-2,3-dihydroquinazolin-4(1H)-one] |
| ≤ 100 nM | Cc1[nH]c(=O)ccc1N1CN(c2ccc(F)cc2C(C)(C)C)c2ccc(Cl)cc2C1=O (single isomer, unassigned) [Example 294, 1-(2-(tert-Butyl)-4-fluorophenyl)-6-chloro-3-(2-methyl-6-oxo-1,6-dihydropyridin-3-yl)-2,3-dihydroquinazolin-4(1H)-one] |
| 794 to 7940 nM | Cc1[nH]c(=O)ccc1N1CN(c2ccc(F)cc2C(C)(C)C)c2cc(C(F)(F)F)ccc2C1=O (single isomer, unassigned) [Example 295, 1-(2-(tert-butyl)-4-fluorophenyl)-3-(2-methyl-6-oxo-1,6-dihydropyridin-3-yl)-7-(trifluoromethyl)-2,3-dihydroquinazolin-4(1H)-one] |
| ≤ 100 nM | Cc1[nH]c(=O)ccc1N1CN(c2ccc(F)cc2C(C)(C)C)c2cc(C(F)(F)F)ccc2C1=O (single isomer, unassigned) [Example 296, 1-(2-(tert-butyl)-4-fluorophenyl)-3-(2-methyl-6-oxo-1,6-dihydropyridin-3-yl)-7-(trifluoromethyl)-2,3-dihydroquinazolin-4(1H)-one] |
| 794 to 7940 nM | Cc1cc(F)ccc1N1CN(c2ccc(S(C)(=O)=O)cc2)C(=O)c2ccc(C(F)(F)F)cc21 [Example 13, 1-(4-fluoro-2-methylphenyl)-3-(4-(methylsulfonyl)phen-yl)-7-(trifluoromethyl)-2,3-dihydroquinazolin-4(1H)-one] |
| 794 to 7940 nM | Cc1cc(F)ccc1N1CN(c2cccc(S(C)(=O)=O)c2)C(=O)c2ccc(C(F)(F)F)cc21 [Example 14, 1-(4-fluoro-2-methylphenyl)-3-(3-(methylsulfonyl)phen-yl)-7-(trifluoromethyl)-2,3-dihydroquinazolin-4(1H)-one] |
| 794 to 7940 nM | Cc1cc(F)ccc1N1CN(C2CCS(=O)(=O)C2)C(=O)c2cc(C(F)(F)F)ccc21 (centres unmarked) [Example 15, 3-(1,1-dioxidotetrahydro-thiophen-3-yl)-1-(4-fluoro-2-methylphenyl)-6-(trifluoromethyl)-2,3-dihydroquinazolin-4(1H)-one] |
